Measurements: ChEMBL document CHEMBL1122006, “Comparison of quantitative structure-activity relationships of the inhibition of leukemia cells in culture with the inhibition of dihydrofolate reductase from leukemia cells and other cell types” (1982)

Tested on: L5178Y
Assay: Concentration required for inhibition of murine leukemia L5178Y cells
Assay type: functional, Mus musculus

Compound | Log 1/C
CCCCCCCCCOc1cccc(N2C(N)=NC(N)=NC2(C)C)c1 | 6.93
CC(C)c1cccc(OCc2cccc(N3C(N)=NC(N)=NC3(C)C)c2)c1 | 8.13
CC1(C)N=C(N)N=C(N)N1c1cccc(CNc2cc(C(N)=O)cc(C(N)=O)c2)c1 | 7.01
Cc1cccc(OCc2cccc(N3C(N)=NC(N)=NC3(C)C)c2)c1 | 8.16
CC1(C)N=C(N)N=C(N)N1c1cccc(COc2cccc(NC(N)=O)c2)c1 | 8.18
CC1(C)N=C(N)N=C(N)N1c1cccc(OCCOc2cccc(C(F)(F)F)c2)c1 | 7.37
CC(=O)Nc1cccc(OCc2cccc(N3C(N)=NC(N)=NC3(C)C)c2)c1 | 8.66
CC1(C)N=C(N)N=C(N)N1c1cccc([N+](=O)[O-])c1 | 7.66
CC1(C)N=C(N)N=C(N)N1c1cccc(C(N)=O)c1 | 6.1
CC1(C)N=C(N)N=C(N)N1c1cccc(C(O)c2ccccc2)c1 (stereo not drawn) | 6.41
CC1(C)N=C(N)N=C(N)N1c1cccc(OCCOc2ccccc2)c1 | 7.34
CC1(C)N=C(N)N=C(N)N1c1cccc(F)c1 | 7.94
CC(C)(C)c1cccc(N2C(N)=NC(N)=NC2(C)C)c1 | 7.59
CC1(C)N=C(N)N=C(N)N1c1cccc(Br)c1 | 8.42
CCOC(=O)c1cccc(N2C(N)=NC(N)=NC2(C)C)c1 | 8.13
CC1(C)N=C(N)N=C(N)N1c1cccc(I)c1 | 8.4
CC1(C)N=C(N)N=C(N)N1c1cccc(OCc2ccc(Cl)c(Cl)c2)c1 | 7.15

Compound | Log 1/C
CC1(C)N=C(N)N=C(N)N1c1cccc(COc2ccccc2)c1 | 8.2
CCc1cccc(OCc2cccc(N3C(N)=NC(N)=NC3(C)C)c2)c1 | 8.11
CC1(C)N=C(N)N=C(N)N1c1cccc(COc2cccc(C#N)c2)c1 | 8.09
CCCCCCCCCCCCOc1cccc(N2C(N)=NC(N)=NC2(C)C)c1 | 6.41
CC(C)(C)c1cccc(OCc2cccc(N3C(N)=NC(N)=NC3(C)C)c2)c1 | 7.3
CC1(C)N=C(N)N=C(N)N1c1cccc(COc2cccc(NC(=N)S)c2)c1 | 8.08
CC1(C)N=C(N)N=C(N)N1c1ccc(OCc2cccc(C(N)=O)c2)c(Cl)c1 | 7.53
CC1(C)N=C(N)N=C(N)N1c1cccc(COc2cccc(Cl)c2)c1 | 8.1
COc1cccc(OCc2cccc(N3C(N)=NC(N)=NC3(C)C)c2)c1 | 8.02
CC1(C)N=C(N)N=C(N)N1c1cccc(COc2cccc(CO)c2)c1 | 8.32
CC1(C)N=C(N)N=C(N)N1c1cccc(OCCCCOc2cccc(C(F)(F)F)c2)c1 | 7.14
CC(=O)c1cccc(N2C(N)=NC(N)=NC2(C)C)c1 | 6.96
CC1(C)N=C(N)N=C(N)N1c1cccc(OCCCCOc2ccccc2)c1 | 6.97
Cc1cccc(N2C(N)=NC(N)=NC2(C)C)c1 | 8.01
CC1(C)N=C(N)N=C(N)N1c1cccc(OCc2ccccc2)c1 | 7.78
CN(Cc1cnc2nc(N)nc(N)c2n1)c1ccc(C(=O)N[C@@H](CCC(=O)O)C(=O)O)cc1 [METHOTREXATE] | 8.89
